Measurements as given in patent US7452887B2, “Quinoline- and isoquinoline-based compounds exhibiting ATP-utilizing enzyme inhibitory activity, and compositions, and uses thereof” (Amphora Discovery Corporation, priority 2004, dated 2008).

Key:
Test in all cases: HTS ATP-utilizing enzyme assay, off-chip mobility-shift (Caliper HTS 250)
Type in all cases: biochemical
Conditions in all cases: test compound 10 μM, kinase listed = active (greater than six-sigma from the mean activity of inactive compounds)
GSK3-α = GSK3-α (Homo sapiens, UniProt P49840)
How it was run: (§1)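 The ratio of peptide substrate to phosphorylated product, measured by microfluidic mobility shift, gave percent inhibition. Reactions contained enzyme, peptide substrate and compound at 10 μM in HEPES pH 7.5 buffer, ran 2.5 hrs at 20° C. to 22° C., and were quenched with EDTA.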

CHEK1 = molecular target: T1, CHEK1 (Homo sapiens, UniProt O14757)
T1 sequence (O14757 1-476): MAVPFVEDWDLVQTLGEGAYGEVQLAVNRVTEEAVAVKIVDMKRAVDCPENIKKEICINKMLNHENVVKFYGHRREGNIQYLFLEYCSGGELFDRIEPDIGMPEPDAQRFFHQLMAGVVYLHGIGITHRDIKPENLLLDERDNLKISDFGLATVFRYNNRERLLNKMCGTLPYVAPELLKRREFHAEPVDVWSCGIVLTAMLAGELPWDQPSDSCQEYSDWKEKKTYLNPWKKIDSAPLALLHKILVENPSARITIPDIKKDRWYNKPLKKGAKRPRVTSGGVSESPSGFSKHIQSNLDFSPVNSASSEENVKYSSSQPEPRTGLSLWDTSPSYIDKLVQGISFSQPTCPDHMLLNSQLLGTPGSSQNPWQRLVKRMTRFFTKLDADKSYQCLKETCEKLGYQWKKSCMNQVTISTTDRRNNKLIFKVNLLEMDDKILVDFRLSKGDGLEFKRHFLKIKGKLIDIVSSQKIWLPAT
How it was run: as §1

CDK1/cyclin B = CDK1/cyclin B (Homo sapiens, UniProt P06493)
How it was run: as §1

BMX = molecular target: T2, BMX (Homo sapiens, UniProt P51813)
T2 sequence (P51813 1-675): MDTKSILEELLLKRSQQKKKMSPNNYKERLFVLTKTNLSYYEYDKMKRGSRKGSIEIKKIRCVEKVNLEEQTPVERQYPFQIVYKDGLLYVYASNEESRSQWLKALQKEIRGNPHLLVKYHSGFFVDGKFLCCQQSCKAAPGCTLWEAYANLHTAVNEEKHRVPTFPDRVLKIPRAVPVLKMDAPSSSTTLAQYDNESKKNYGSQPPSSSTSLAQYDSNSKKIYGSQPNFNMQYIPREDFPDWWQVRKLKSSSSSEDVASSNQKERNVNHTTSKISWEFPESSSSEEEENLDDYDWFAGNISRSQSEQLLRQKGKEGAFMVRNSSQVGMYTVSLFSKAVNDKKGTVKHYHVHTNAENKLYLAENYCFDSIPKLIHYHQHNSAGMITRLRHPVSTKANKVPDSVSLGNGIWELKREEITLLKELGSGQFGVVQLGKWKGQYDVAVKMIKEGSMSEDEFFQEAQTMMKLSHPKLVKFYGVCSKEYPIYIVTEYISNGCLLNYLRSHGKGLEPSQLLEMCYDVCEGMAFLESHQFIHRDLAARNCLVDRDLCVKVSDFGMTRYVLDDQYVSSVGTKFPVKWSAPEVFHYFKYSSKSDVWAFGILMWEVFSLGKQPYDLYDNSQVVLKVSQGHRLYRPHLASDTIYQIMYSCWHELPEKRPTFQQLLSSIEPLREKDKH
How it was run: as §1

LYNA = LYNA (Homo sapiens, UniProt P07948)
How it was run: as §1

CHEK2 = CHEK2 (Homo sapiens, UniProt O96017)
How it was run: as §1

Chain of CDK1/cyclin B (P06493 whole entry): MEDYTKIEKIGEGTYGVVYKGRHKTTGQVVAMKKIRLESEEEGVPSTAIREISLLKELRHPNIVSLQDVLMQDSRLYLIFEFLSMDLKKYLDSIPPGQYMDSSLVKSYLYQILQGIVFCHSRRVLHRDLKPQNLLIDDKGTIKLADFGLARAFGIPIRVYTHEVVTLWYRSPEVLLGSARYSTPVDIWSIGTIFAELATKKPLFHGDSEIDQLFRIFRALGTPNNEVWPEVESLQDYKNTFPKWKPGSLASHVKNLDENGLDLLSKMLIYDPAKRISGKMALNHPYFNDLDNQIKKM
Chain of CDK1/cyclin B (P14635 whole entry partner): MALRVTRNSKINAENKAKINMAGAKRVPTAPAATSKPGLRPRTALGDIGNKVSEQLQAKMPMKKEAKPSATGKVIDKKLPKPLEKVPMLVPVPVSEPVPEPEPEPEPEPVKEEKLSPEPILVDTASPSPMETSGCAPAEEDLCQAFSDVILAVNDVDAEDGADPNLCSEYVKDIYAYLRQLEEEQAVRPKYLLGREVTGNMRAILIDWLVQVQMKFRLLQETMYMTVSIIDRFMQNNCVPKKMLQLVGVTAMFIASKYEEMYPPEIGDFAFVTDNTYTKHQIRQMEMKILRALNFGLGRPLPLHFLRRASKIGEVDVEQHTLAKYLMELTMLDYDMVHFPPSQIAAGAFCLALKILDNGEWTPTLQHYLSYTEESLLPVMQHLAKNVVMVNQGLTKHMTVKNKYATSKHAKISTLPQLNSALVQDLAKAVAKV
Chain of GSK3-α (P49840 whole entry): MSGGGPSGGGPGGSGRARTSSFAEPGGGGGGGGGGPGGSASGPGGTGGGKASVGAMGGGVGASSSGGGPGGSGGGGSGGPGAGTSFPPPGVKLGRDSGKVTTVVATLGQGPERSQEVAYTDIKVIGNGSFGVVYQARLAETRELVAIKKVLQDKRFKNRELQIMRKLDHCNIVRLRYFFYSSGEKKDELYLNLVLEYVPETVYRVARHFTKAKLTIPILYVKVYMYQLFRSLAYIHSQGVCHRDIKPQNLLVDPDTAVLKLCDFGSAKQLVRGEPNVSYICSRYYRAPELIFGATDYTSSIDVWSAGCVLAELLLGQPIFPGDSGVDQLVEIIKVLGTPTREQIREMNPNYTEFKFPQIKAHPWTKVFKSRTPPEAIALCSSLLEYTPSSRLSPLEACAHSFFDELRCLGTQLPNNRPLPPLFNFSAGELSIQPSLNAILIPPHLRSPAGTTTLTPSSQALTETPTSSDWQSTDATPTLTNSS
Chain of LYNA (P07948 whole entry): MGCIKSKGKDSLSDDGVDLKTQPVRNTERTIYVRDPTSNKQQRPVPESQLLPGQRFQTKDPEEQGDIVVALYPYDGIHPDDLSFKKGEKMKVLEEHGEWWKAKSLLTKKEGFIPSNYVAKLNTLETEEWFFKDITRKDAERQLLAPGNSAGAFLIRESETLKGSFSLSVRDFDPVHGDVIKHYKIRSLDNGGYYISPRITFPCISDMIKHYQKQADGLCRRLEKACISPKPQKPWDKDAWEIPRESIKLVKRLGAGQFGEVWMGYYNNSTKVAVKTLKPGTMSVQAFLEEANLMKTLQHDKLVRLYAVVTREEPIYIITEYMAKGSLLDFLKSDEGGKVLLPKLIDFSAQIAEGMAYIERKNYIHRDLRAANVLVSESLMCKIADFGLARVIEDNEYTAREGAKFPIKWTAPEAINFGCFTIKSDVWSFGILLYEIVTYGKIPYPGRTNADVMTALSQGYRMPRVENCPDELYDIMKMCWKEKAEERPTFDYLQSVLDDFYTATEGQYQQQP
Chain of CHEK2 (O96017 whole entry): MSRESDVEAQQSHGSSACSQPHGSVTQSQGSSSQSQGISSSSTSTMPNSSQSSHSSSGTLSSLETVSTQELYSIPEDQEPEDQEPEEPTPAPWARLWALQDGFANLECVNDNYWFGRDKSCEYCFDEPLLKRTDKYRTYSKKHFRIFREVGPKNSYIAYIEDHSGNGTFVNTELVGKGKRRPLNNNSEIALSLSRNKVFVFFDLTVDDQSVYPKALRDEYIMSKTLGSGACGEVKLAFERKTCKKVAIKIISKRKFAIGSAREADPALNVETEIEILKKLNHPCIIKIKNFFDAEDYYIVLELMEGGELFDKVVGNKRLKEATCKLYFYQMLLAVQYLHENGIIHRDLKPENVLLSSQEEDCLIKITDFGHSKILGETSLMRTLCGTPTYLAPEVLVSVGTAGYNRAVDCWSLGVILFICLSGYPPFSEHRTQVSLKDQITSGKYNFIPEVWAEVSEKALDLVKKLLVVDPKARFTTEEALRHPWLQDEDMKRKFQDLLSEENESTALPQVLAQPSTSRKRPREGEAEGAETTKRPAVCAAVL

CN1CCN(c2ccc(Nc3ccnc4ccc(-c5ccc(F)cc5)cc34)cc2)CC1 [6-(4-fluorophenyl)-N-(4-(4-methylpiperazin-1-yl)phenyl)quinolin-4-amine]
Activity (GSK3-α): GSK3-α

COc1ccc(-c2ccc3nccc(Nc4ccc(N5CCNCC5)cc4)c3c2)cc1 [6-(4-methoxyphenyl)-N-(4-(piperazin-1-yl)phenyl)quinolin-4-amine]
Activity (CHEK1): CHEK1
Activity (CDK1/cyclin B): CDK1/cyclin B

COc1ccc(-c2ccc3nccc(N(C)c4ccc(N5CCN(C)CC5)cc4)c3c2)cc1 [6-(4-methoxyphenyl)-N-methyl-N-(4-(4-methylpiperazin-1-yl)phenyl)quinolin-4-amine]
Activity (BMX): BMX

c1ccc(-c2ccc3nccc(Nc4ccc(N5CCNCC5)cc4)c3c2)cc1 [6-phenyl-N-(4-(piperazin-1-yl)phenyl)quinolin-4-amine]
Activity (CHEK1): CHEK1
Activity (LYNA): LYNA

CN1CCN(c2ccc(Nc3ccnc4ccc(-c5cccc6ccccc56)cc34)cc2)CC1 [N-(4-(4-methylpiperazin-1-yl)phenyl)-6-(naphthalen-1-yl)quinolin-4-amine]
Activity (CHEK2): CHEK2
Activity (BMX): BMX
Activity (CDK1/cyclin B): CDK1/cyclin B
Activity (LYNA): LYNA

CN1CCN(c2ccc(Nc3ccnc4ccc(-c5ccc6ccccc6c5)cc34)cc2)CC1 [N-(4-(4-methylpiperazin-1-yl)phenyl)-6-(naphthalen-2-yl)quinolin-4-amine]
Activity (CHEK2): CHEK2
Activity (CHEK1): CHEK1
Activity (BMX): BMX

CN1CCN(c2ccc(Nc3ccnc4ccc(-c5ccncc5)cc34)cc2)CC1 [N-(4-(4-methylpiperazin-1-yl)phenyl)-6-(pyridin-4-yl)quinolin-4-amine]
Activity (GSK3-α): GSK-3-α

Cc1ccccc1-c1ccc2nccc(Nc3ccc(N4CCN(C)CC4)cc3)c2c1 [N-(4-(4-methylpiperazin-1-yl)phenyl)-6-o-tolylquinolin-4-amine]
Activity (BMX): BMX
